Measurements as given in patent US20260184663A1, “INDENE COMPOUNDS, PHARMACEUTICAL COMPOSITIONS THEREOF, AND THEIR THERAPEUTIC APPLICATIONS” (NucMito Pharmaceuticals co. Ltd., priority 2022, published 2026).

Legend:
Type in all cases: cell-based
[1] = test system: B16F10 (malignant melanoma); experiment: Antiproliferative activity (CCK-8 cell viability), B16F10; details: Mus musculus, 72 h, read-out: Antiproliferative activity in cancerous cells, B16F10 (inhibition of cell growth); for inhibition at 3.3 µM: B16-F10, Compound concentration: 3.3 μM; for inhibition at 10 µM: B16-F10, Compound concentration: 10 μM
Method in brief: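 B16F10 melanoma cells grown in DMEM with 10% FBS were plated in 96-well plates at 2,000-5,000 cells/well. After attachment they were exposed to compound in medium for 72 h at 37° C. CCK-8 solution (10 μL) was then added, and after 4 h at 37° C absorbance was read at 450 nm.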

[2] = test system: A549 (lung adenocarcinoma); experiment: Antiproliferative activity (CCK-8 cell viability), A549; details: Homo sapiens, 72 h, read-out: Antiproliferative activity in cancerous cells, A549 (inhibition of cell growth); for inhibition at 3.3 µM: Compound concentration: 3.3 μM; for inhibition at 10 µM: Compound concentration: 10 μM
Method in brief: (§1)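 Cells grown in DMEM (HepG2, SW480), MEM (HeLa) or F-12K (A549), each with 10% FBS, then exposed to compound at 3.3, 10 or 30 μM for 72 h at 37 °C. CCK-8 absorbance at 450 nm; viability expressed as percent of DMSO-treated cells, graded as growth inhibition bands.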

[3] = test system: alpha-smooth muscle actin (α-SMA); experiment: Inhibition of TGF-β induced expression of alpha-smooth muscle actin (α-SMA) in CFSC cells (western blot); details: compound at 10 μM, TGF-β (10 ng/mL), 24 hours, band intensity vs TGF-β only
Protocol: The ability of a compound to inhabit the TGF-β induced expression of alpha-smooth muscle actin (α-SMA) was evaluated in CCl4-treated fat storing (CFSC) cells. α-SMA is considered as a reliable marker of hepatic stellate cell activation and a key biomarker for liver fibrosis.
CFSC cells maintained in a DMEM medium supplemented with 10% fetal bovine serum were seeded to 12-well culture dishes and grown to a confluence of 60-70% the next day. Culture was changed to a serum-free DMEM medium, and the cells were treated with a compound at 10 μM in the presence of TGF-β (10 ng/mL). The cells were incubated for another 24 hours. All culture was maintained at 37° C. in 5% carbon dioxide.
An NP-40 lysate solution (50 mM Tris (pH 7.4), 150 mM NaCl, 1% NP-40) with EDTA free cocktail added was used to lyse the cells on ice for 30 min. The lysate was collected and centrifuged at 4° C. for 10 min at 12,000 rpm. The pellet was discarded and the supernatant was transferred to a new tube. Cell lysates were loaded with 5× loading buffer and boiled for 10 min, resolved by 10% SDS-polyacrylamide gel electrophoresis (SDS-PAGE), and transferred to PVDF membrane. The membrane was blocked with 5% skim milk in Tris-buffered saline and TWEEN® 20 (TBST; 10 mM Tris-HCl (pH 8.0), 150 mM NaCl, 0.1% TWEEN® 20) for 1 h at room temperature and then incubated with α-SMA and β-actin antibodies overnight at 4° C. After washing twice with TBST, the membrane was probed with a horseradish […] anti-immunoglobulin (1:5000 dilution) for 1 h at room temperature. After two subsequent rinses in TBST, immunoreactive products were reacted with ECL and visualized by a UVP CHEMSTUDIO™ imaging system. The western blotting bands are quantitated using an ImageJ software. The percentage of inhibition was obtained by calculating the percentage decrease in the band intensity compared to the one treated with TGF-β only.
The results are summarized in Table 1, where A represents a value no less of 80% inhibition, B represents a value less than […] but no less than […], C represents a value less than 50% but no less than 30% inhibition, and D represents a value less than 30% inhibition with a compound at 10 μM.

[4] = test system: HeLa (cervical cancer); experiment: Antiproliferative activity (CCK-8 cell viability), HeLa; details: Homo sapiens, 72 h, read-out: Antiproliferative activity in cancerous cells, HELA (inhibition of cell growth); for inhibition at 3.3 µM: Compound concentration: 3.3 μM; for inhibition at 10 µM: Compound concentration: 10 μM
Method in brief: as §1

[5] = test system: A431 (epidermoid carcinoma); experiment: Antiproliferative activity (CCK-8 cell viability), A431; details: Homo sapiens, 72 h, read-out: Antiproliferative activity in cancerous cells, A431 (inhibition of cell growth); for inhibition at 3.3 µM: A-431, Compound concentration: 3.3 μM; for inhibition at 10 µM: A-431, Compound concentration: 10 μM
Method in brief: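 A431 epidermoid carcinoma cells grown in DMEM with 10% FBS were plated at 2,000-5,000 cells/well in 96-well plates. After attachment they were exposed to compound at 3.3 μM, 10 μM, or 30 μM for 72 h at 37° C. Viability was then assessed by CCK-8 against DMSO vehicle-treated wells.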

[6] = test system: MDA-MB-231 (breast cancer); experiment: Antiproliferative activity (CCK-8 cell viability), MDA-MB-231; details: Homo sapiens, 72 h, read-out: Antiproliferative activity in cancerous cells, MDA-MB-231 (inhibition of cell growth); for inhibition at 3.3 µM: Compound concentration: 3.3 μM; for inhibition at 10 µM: Compound concentration: 10 μM
Method in brief: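 MDA-MB-231 breast cancer cells, grown in DMEM with 10% FBS, were plated in 96-well plates at 2,000-5,000 cells/well. Once attached, they were exposed to compound and incubated at 37° C. for 72 h. Viability was then measured with CCK-8 (10 μL per well, 4 h at 37° C.) by absorbance at 450 nm, relative to DMSO vehicle wells.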

[7] = test system: SW480 (colon cancer); experiment: Antiproliferative activity (CCK-8 cell viability), SW480; details: Homo sapiens, 72 h, read-out: Antiproliferative activity in cancerous cells, SW480 (inhibition of cell growth); for inhibition at 3.3 µM: Compound concentration: 3.3 μM; for inhibition at 10 µM: Compound concentration: 10 μM
Method in brief: as §1

[8] = test system: HepG2 (liver cancer); experiment: Antiproliferative activity (CCK-8 cell viability), HepG2; details: Homo sapiens, 72 h; for inhibition at 3.3 µM: Compound concentration: 3.3 μM; for inhibition at 3.3 µM / inhibition at 10 µM: read-out: Antiproliferative activity in cancerous cells, HepG2 (inhibition of cell growth); for inhibition at 10 µM: Compound concentration: 10 μM
Method in brief: as §1

Compound | inhibition at 3.3 µM [1] [%] | inhibition at 10 µM [1] [%] | inhibition at 3.3 µM [2] [%] | inhibition at 10 µM [2] [%] | inhibition at 10 µM [3] [%] | inhibition at 3.3 µM [4] [%] | inhibition at 10 µM [4] [%] | inhibition at 3.3 µM [5] [%] | inhibition at 10 µM [5] [%] | inhibition at 3.3 µM [6] [%] | inhibition at 10 µM [6] [%] | inhibition at 3.3 µM [7] [%] | inhibition at 10 µM [7] [%] | inhibition at 3.3 µM [8] [%] | inhibition at 10 µM [8] [%] | inhibition at 30 µM ([8]; Compound concentration: 30 μM, read-out: Antiproliferative activity in cancerous cells, HepG2) [%]
CCCC1=C(CC(=O)O)c2cc(F)ccc2/C1=C\c1cccc(COc2ccccc2)c1 [A7, (Z)-2-(5-Fluoro-1-(3-(phenoxymethyl)benzylidene)-2-propyl-1H-inden-3-yl)-acetic acid] | 30 to 50 | ≥ 50 | 30 to 50 | ≥ 50 | > 80 | < 30 | ≥ 50 | < 30 | ≥ 50 | ≥ 50 | ≥ 50 | < 30 | ≥ 50 | ≥ 50 | < 30 | –
O=C(O)CC1=C/C(=C/c2cccc(COc3ccccc3)c2)c2ccc(F)cc21 [A8, (Z)-2-(5-Fluoro-1-(3-(phenoxymethyl)benzylidene)-1H-inden-3-yl)acetic acid] | 30 to 50 | ≥ 50 | 30 to 50 | ≥ 50 | > 80 | ≥ 50 | ≥ 50 | < 30 | 30 to 50 | 30 to 50 | ≥ 50 | < 30 | 30 to 50 | 30 to 50 | 30 to 50 | –
COc1ccc2c(c1)/C(=C\c1ccc(OCc3ccccc3)cc1)C=C2CC(=O)O [A9, (Z)-2-(1-(4-(Benzyloxy)benzylidene)-6-methoxy-1H-inden-3-yl)acetic acid] | < 30 | < 30 | 30 to 50 | ≥ 50 | > 80 | < 30 | 30 to 50 | 30 to 50 | ≥ 50 | < 30 | ≥ 50 | 30 to 50 | ≥ 50 | < 30 | < 30 | 30 to 50
O=C(O)CC1=C(Cc2ccc(C(F)(F)F)cc2)/C(=C/c2cccc(COc3ccccc3)c2)c2ccc(F)cc21 [A10, (Z)-2-(5-Fluoro-1-(3-(phenoxymethyl)benzylidene)-2-(4-(trifluoromethyl)-benzyl)-1H-inden-3-yl)acetic acid] | ≥ 50 | ≥ 50 | 30 to 50 | ≥ 50 | > 80 | ≥ 50 | ≥ 50 | ≥ 50 | ≥ 50 | ≥ 50 | ≥ 50 | ≥ 50 | ≥ 50 | ≥ 50 | ≥ 50 | –
O=C(O)CC1=C(Cc2ccc(Oc3ccc(F)cc3)cc2)/C(=C/c2cccc(COc3ccccc3)c2)c2ccc(F)cc21 [A101, (Z)-2-(5-Fluoro-2-(4-(4-fluorophenoxy)benzyl)-1-(3-(phenoxymethyl)-benzylidene)-1H-inden-3-yl)acetic acid] | ≥ 50 | ≥ 50 | ≥ 50 | ≥ 50 | > 80 | ≥ 50 | ≥ 50 | ≥ 50 | ≥ 50 | ≥ 50 | ≥ 50 | ≥ 50 | ≥ 50 | ≥ 50 | ≥ 50 | –
O=C(O)CC1=C(Cc2ccc(Oc3ccc(F)cc3)cc2)/C(=C/c2ccc(N3CCOCC3)cc2)c2ccc(F)cc21 [A102, (Z)-2-(5-Fluoro-2-(4-(4-fluorophenoxy)benzyl)-1-(4-morpholinobenzylidene)-1H-inden-3-yl)acetic acid] | ≥ 50 | ≥ 50 | ≥ 50 | ≥ 50 | > 80 | ≥ 50 | ≥ 50 | ≥ 50 | ≥ 50 | ≥ 50 | ≥ 50 | ≥ 50 | ≥ 50 | ≥ 50 | ≥ 50 | –
CC(C)c1ccc(/C=C2/C(Cc3ccc(Oc4ccc(F)cc4)cc3)=C(CC(=O)O)c3cc(F)ccc32)cc1 [A103, (Z)-2-(5-Fluoro-2-(4-(4-fluorophenoxy)benzyl)-1-(4-isopropylbenzylidene)-1H-inden-3-yl)acetic acid] | ≥ 50 | ≥ 50 | ≥ 50 | ≥ 50 | > 80 | ≥ 50 | ≥ 50 | ≥ 50 | ≥ 50 | ≥ 50 | ≥ 50 | ≥ 50 | ≥ 50 | ≥ 50 | ≥ 50 | –
CCc1ccc(/C=C2/C(Cc3ccc(Oc4ccc(F)cc4)cc3)=C(CC(=O)O)c3cc(F)ccc32)cc1 [A104, (Z)-2-(1-(4-Ethylbenzylidene)-5-fluoro-2-(4-(4-fluorophenoxy)benzyl)-1H-inden-3-yl)acetic acid] | ≥ 50 | ≥ 50 | ≥ 50 | ≥ 50 | > 80 | ≥ 50 | ≥ 50 | ≥ 50 | ≥ 50 | ≥ 50 | ≥ 50 | ≥ 50 | ≥ 50 | ≥ 50 | ≥ 50 | –
